Measurements taken from US9533975B2, “Dual-action, unnatural proline-rich peptides as antibiotic agents and methods thereof” (Purdue Research Foundation, priority 2014, dated 2017).

How the values were obtained:
in vitro = details: human
[1] = tested on: human red blood cells (hRBCs); details: at 5 'LIM

CC[C@H](C)[C@H](NC(=O)CN)C(=O)NCC(=O)N[C@@H](C)C(=O)N[C@H](C(=O)N[C@@H](CC(C)C)C(=O)N[C@@H](CCCCN)C(=O)N[C@H](C(=O)N[C@@H](CC(C)C)C(=O)N[C@H](C(=O)N[C@H](C(=O)NCC(=O)N[C@@H](CC(C)C)C(=O)N1CCC[C@H]1C(=O)N[C@@H](C)C(=O)N[C@@H](CC(C)C)C(=O)N[C@H](C(=O)N[C@@H](CO)C(=O)N[C@@H](Cc1c[nH]c2ccccc12)C(=O)N[C@H](C(=O)N[C@@H](CCCCN)C(=O)N[C@@H](CCCNC(=N)N)C(=O)N[C@@H](CCCCN)C(=O)N[C@@H](CCCNC(=N)N)C(=O)N[C@@H](CCC(N)=O)C(=O)N[C@@H](CCC(N)=O)C(N)=O)[C@@H](C)CC)[C@@H](C)CC)[C@@H](C)O)[C@@H](C)O)C(C)C)C(C)C [Melittin]
hemolysis at 5 µM (in vitro): > 80% | hemolytic activity [1]: highly hemolytic
